Assay results published in article PMC12602503, “AaeAP2a, a scorpion-derived antimicrobial peptide, combats carbapenem-resistant Acinetobacter baumannii via membrane disruption and triggered metabolic collapse” (Frontiers in Microbiology, 2025).
≈ marks a conversion by molar mass, not a printed value. Entries after “also recorded” stand apart in the source; their conditions may differ. Read-outs that look alike come from different tables or passages of the source. No end group written: not given here.

Experiments:
A. baumannii ATCC 19606 = assay: microbe, parasite or virus in culture; assay type: cell-based, Acinetobacter baumannii; settings: for Interpretation: CLSI interpretation of MIC; for MIC: CLSI M100-ED34, MHB, triplicate; as to Interpretation: key: R, Resistant; I, Intermediate; S, Sensitive
Experimental: (§1) The inhibitory activity of the antimicrobial peptide was assessed using the broth microdilution method following the CLSI M100-ED34 standard ([Humphries et al., 2021]). A single colony of A. baumannii was isolated and inoculated into Mueller-Hinton Broth (MHB), then incubated overnight at 37 °C with agitation at 180 rpm. The overnight cultures were adjusted to a 0.5 McFarland turbidity standard, after which it was diluted 1:100 in MHB medium. […] A. baumannii ATCC 19606 served as the control strain, and the experiments were conducted in triplicate.

CRAB 236 = assay: microbe, parasite or virus in culture; assay type: cell-based, Acinetobacter baumannii; settings: for Interpretation: CLSI interpretation of MIC; as to Interpretation: key: R, Resistant; I, Intermediate; S, Sensitive
Experimental: as §1

[1] = test system: Escherichia coli biofilms; settings: 1 × MIC; ref Luo et al., 2024; cited from earlier work
Text: In addition to […] the permeability of antimicrobial agents, bacterial biofilms, which rely on a complex matrix of extracellular polymeric substances, support the evolution of bacterial drug resistance, creating a protective barrier against drug-induced killing ([Verderosa et al., 2019]). AMPs have shown dual potential in meeting biofilm-related chronic infections: they can inhibit the initial stages of biofilm formation and eradicate mature biofilms. In this study, AaeAP2a, at a 4 × MIC, obtained an inhibition rate approaching 80% against biofilms formed by two strains of Acinetobacter ...

trypsin = assay: Protease resistance, read out by MIC; assay type: in vitro ADME; settings: trypsin concentrations exceeding 40 μg/mL, 1 h, 37 °C; MIC vs ATCC 19606; triplicate
Experimental: (§2) We thoroughly examined the effects of storage at room temperature, repeated freeze–thaw cycles, temperature variations, pH levels, salt ions, urea, and protease treatment on the antimicrobial activity of peptide AaeAP2a ([Zhu et al., 2022]). Through 0 to 12 freeze–thaw iterations, AaeAP2a was incubated for 1 h at various temperatures (0, 25, 50, 75, and 100 °C) and pH values (3 to 11). Additionally, the peptide was incubated with four salt ions—NaCl, KCl, CaCl2, and MgCl2—at concentrations of […], as well as with urea at concentrations of […] for 1 h. Furthermore, AaeAP2a was treated with proteinase K or trypsin at concentrations ranging from 0 to 100 μg/mL (i.e., 0, 20, 40, 60, 80, and 100 μg/mL) for 1 h at 37 °C. The changes in its antimicrobial activity were quantitatively assessed using the MIC method. All assays were conducted in triplicate. […] Proteinase K, Trypsin, and Urea were obtained from Beyotime Biotechnology (China), while all other reagents were purchased from Macklin (China).

proteinase K = target: T1, proteinase K (Parengyodontium album, UniProt P06873); assay: Protease resistance, read out by MIC; assay type: in vitro ADME; settings: proteinase K 0–100 μg/mL, 1 h, 37 °C; MIC vs ATCC 19606; triplicate
T1 construct: purchased Beyotime Biotechnology (China)
Experimental: as §2

mouse erythrocytes = assay: Hemolytic activity; assay type: cell-based; settings: 4% mouse erythrocyte suspension, 37 °C, 1 h, OD 540 nm
Experimental: (§3) To systematically evaluate the biosafety of the antimicrobial peptide AaeAP2a, we assessed its hemolytic activity and cytotoxicity ([Liu et al., 2020a]; [Zhou F. et al., 2022]). A 4% (v/v) erythrocyte suspension was prepared from freshly collected anticoagulated mouse blood by repeatedly resuspending and washing the cells three times with phosphate-buffered saline (PBS), following the established protocol. […] In this test, 1% (v/v) Triton X-100 was used as the positive control. Three replicates per treatment group were used to study OD at 540 nm using a microplate reader. The cytotoxicity of AaeAP2a on human embryonic kidney 293 T cells was tested using the Cell Counting Kit - 8 (CCK-8). […] The CCK-8 assay was thus performed, with three replicates recorded for each concentration.

[2] = test system: human embryonic kidney 293 T cells; assay: Cytotoxicity, CCK-8; assay type: cell-based; settings: 16 × MIC, 24 h
Experimental: as §3

horse erythrocytes = settings: 64 μg/mL; 2% horse erythrocyte suspension; ref Du et al.; cited from earlier work
Text: Safety and stability are essential prerequisites for the clinical application of pharmaceutical agents.

[3] = CRAB 236, broth microdilution, CLSI M100-ED34, MHB, triplicate
[4] = Acinetobacter baumannii, ATCC19606, broth microdilution, read-out: MIC

T1 sequence (P06873 106-384): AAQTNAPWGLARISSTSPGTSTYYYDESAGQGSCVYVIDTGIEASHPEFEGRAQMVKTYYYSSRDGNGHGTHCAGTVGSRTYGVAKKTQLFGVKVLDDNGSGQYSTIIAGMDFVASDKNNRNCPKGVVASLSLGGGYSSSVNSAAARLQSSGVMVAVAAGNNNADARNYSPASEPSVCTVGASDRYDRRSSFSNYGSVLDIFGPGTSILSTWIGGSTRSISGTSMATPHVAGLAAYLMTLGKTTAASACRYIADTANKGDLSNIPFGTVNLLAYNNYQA

| Compound | Interpretation (A. baumannii ATCC 19606) | MIC (A. baumannii ATCC 19606; broth microdilution) | Interpretation (CRAB 236; CRAB 236) | MIC (CRAB 236; [3]) | Eradication efficiency against Escherichia coli biofilms [1] | Activity after trypsin treatment (trypsin) | Resistance to proteinase K (proteinase K) | Hemolysis (mouse erythrocytes; 16 × MIC) | Hemolysis (mouse erythrocytes; 64 × MIC (200 μg/mL)) | Cell viability [2] | Hemolysis (horse erythrocytes) | MIC (A. baumannii ATCC 19606; [4]) | MIC (CRAB 236; Acinetobacter baumannii) |
| --- | --- | --- | --- | --- | --- | --- | --- | --- | --- | --- | --- | --- | --- |
| Colistin | S | 2 mg/L | S | 0.5 mg/L | 35% | – | – | – | – | – | – | – | – |
| FLFKLIPKAIKGLVKAIRK [AaeAP2a] | – | 3.125 mg/L | – | 6.25 mg/L | – | markedly reduced; also recorded: diminished | substantial resistance | < 5% | < 5% | > 90% | complete lysis | – | – |
| CNC(C)C1CCC(N)C(OC2C(N)CC(N)C(OC3OCC(C)(O)C(NC)C3O)C2O)O1 (centres unmarked) [Gentamicin] | S | – | R | – | – | – | – | – | – | – | – | 1 mg/L (≈ 2.09 µM) | > 32 mg/L |
| CO/N=C(\C(=O)N[C@@H]1C(=O)N2C(C(=O)O)=C(CSc3nc(=O)c(=O)[nH]n3C)CS[C@H]12)c1csc(N)n1 [Ceftriaxone] | I | – | I | – | – | – | – | – | – | – | – | 16 mg/L (≈ 28.9 µM) | 32 mg/L (≈ 57.7 µM) |
| CN(C)[C@@H]1C(O)=C(C(N)=O)C(=O)[C@@]2(O)C(O)=C3C(=O)c4c(O)cccc4[C@@](C)(O)[C@H]3C[C@@H]12 [Tetracycline] | S | – | R | – | – | – | – | – | – | – | – | 2 mg/L (≈ 4.5 µM) | 64 mg/L (≈ 144 µM) |
| C[C@@H](O)[C@H]1C(=O)N2C(C(=O)O)=C(S[C@@H]3CN[C@H](C(=O)N(C)C)C3)[C@H](C)[C@H]12 [Meropenem] | S | – | R | – | – | – | – | – | – | – | – | 2 mg/L (≈ 5.22 µM) | 16 mg/L (≈ 41.7 µM) |
